In brackets after ≈: the same amount, converted by molar mass.
Tests used:
[1] = system: in vivo tumors (RG2 cells); experiment: Relative tumor volume after treatment with NIR irradiation; settings: mice, 24 hours after the treatment
Experimental: In Experimental example 7, the targeting efficiency of the drug carrier of the present invention was tested by experiments on in vivo tumors (RG2 cells) of mice. The tumor temperature was also observed while undergoing NIR irradiation. Further, the effects on the volume of the tumors and the mass of the mice were observed through different conditions of treatment.
Referring to FIG. 15A, which is a relative tumor volume vs. time graph of mice after treated by different conditions. The treating conditions were PBS+NIR irradiation, pure DOX+NIR irradiation, non-drug loaded carriers+NIR irradiation, and carriers loaded with DOX+NIR irradiation, and changes in the relative tumor volume along time of which are represented by lines 910, 920, 930, and 940, respectively. The relative tumor volume was observed after 24 hours later of the treatment, and used the tumor volume right after the treatment as a base. […] As for the treatments of the PBS+NIR irradiation, i.e. line 910, and the pure DOX+NIR irradiation, i.e. line 920, the tumor volumes were increased. […] The treatment of the PBS+NIR irradiation, i.e. line 910, could not treat the tumor because there was no drug being injected. The treatment of the pure DOX+NIR irradiation, i.e. line 920, was difficult to reach the tumor region to have the effect of therapy because the drug was not encapsulated in carriers. […]

[2] = Mass of mice after treatment; format: in vivo; settings: with NIR irradiation
Source text: Further, referring to FIG. 15B, which is a mass vs. time graph of mice after treated by different conditions. The treating conditions were PBS+NIR irradiation, pure DOX+NIR irradiation, non-drug loaded carriers+NIR irradiation, and carriers loaded with DOX+NIR irradiation, and changes in the mass of the mice along time of which are represented by lines 950, 960, 970, and 980, respectively.

[3] = system: RG2 cells; experiment: Toxicity tests for photothermal therapy in RG2 cells
Experimental: Toxicity tests for photothermal therapy: No carriers, non-drug loaded carriers, and drug carriers of the present invention with different DOX concentrations were independently incubated with RG2 cells in vitro for 1 hour, and irradiated by NIR for 5 minutes (808 nm, 2 W/cm^2). Then, the cells were stained by propidium iodide and observed by a confocal microscope, and the cell viabilities were calculated.
The conditions for bars 810, 820, and 830 were without using of DOX, and bars 810, 820, and 830 represents the cell viabilities of no carriers, which is as a control, carriers without the NIR irradiation, and carriers with the NIR irradiation, respectively. The conditions for bars 840, 850, and 860 were using of 0.25 μg/mL DOX, and bars 840, 850, and 860 represents the cell viabilities of pure DOX, which is as a control, carriers without the NIR irradiation, and carriers with the NIR irradiation, respectively. The conditions for bars 870, 880, and 890 were using of 0.05 μg/mL DOX, and bars 870, 880, and 890 represents the cell viabilities of pure DOX, which is as a control, carriers without the NIR irradiation, and carriers with the NIR irradiation, respectively. […] Bar 850 represents the drug carriers loaded with 0.25 μg/mL DOX, but not underwent the NIR irradiation after incubating with the cells. […] Bar 860 represents the drug carriers loaded with 0.25 μg/mL DOX, and underwent the NIR irradiation after incubating with the cells.

mass of mice over time [2]: no obvious difference in mass
Compound: COc1cccc2c1C(=O)c1c(O)c3c(c(O)c1C2=O)C[C@@](O)(C(=O)CO)C[C@@H]3O[C@H]1C[C@H](N)[C@H](O)[C@H](C)O1 [DOX, doxorubicin]
relative tumor volume [1]: increased
cell death ([3]; RG2 cells, pure DOX 0.25 μg/mL (bar 840)): about 50%
cell viability at 0.05 μg/mL DOX compared with 0.25 μg/mL ([3]; RG2 cells, without NIR irradiation (bars 870, 880)): increased
IC50 ([3]; Rattus norvegicus, RG2, read-out: half maximal inhibitory concentration (IC50)): ~0.25 µg/mL (≈ 0.46 µM)

Reference: patent publication US20160089443A1, “PROTEIN-GRAPHENE NANOCOMPOSITE DRUG CARRIER” (NATIONAL CHIAO TUNG UNIVERSITY, priority 2014, published 2016)
